Laboratory results published in PMC9100525, “CsCuAOs and CsAMADH1 Are Required for Putrescine-Derived γ-Aminobutyric Acid Accumulation in Tea” (Foods, 2022).

Assays:
Format in all cases: biochemical
CsCuAO1 = target: T1, CsCuAO1 (Camellia sinensis, UniProt A0A4S4D8A3); assay: peroxidase-coupled 4-aminoantipyrine/N,N-dimethylaniline assay at […] nm; Lineweaver-Burk; conditions: 0.1 M potassium phosphate pH 6.5; O2 co-substrate; unit "Mm" [sic] (substrate range 0.1-100 mM)
T1 construct: gene TEA_026770; recombinant GST fusion, pGEX-4T-1, purified; peroxisomal; copper/TPQ enzyme, CuAOs stated as homodimer in general; gene from Tea Plant Information Archive, locus id not given
T1 sequence (A0A4S4D8A3 1-662): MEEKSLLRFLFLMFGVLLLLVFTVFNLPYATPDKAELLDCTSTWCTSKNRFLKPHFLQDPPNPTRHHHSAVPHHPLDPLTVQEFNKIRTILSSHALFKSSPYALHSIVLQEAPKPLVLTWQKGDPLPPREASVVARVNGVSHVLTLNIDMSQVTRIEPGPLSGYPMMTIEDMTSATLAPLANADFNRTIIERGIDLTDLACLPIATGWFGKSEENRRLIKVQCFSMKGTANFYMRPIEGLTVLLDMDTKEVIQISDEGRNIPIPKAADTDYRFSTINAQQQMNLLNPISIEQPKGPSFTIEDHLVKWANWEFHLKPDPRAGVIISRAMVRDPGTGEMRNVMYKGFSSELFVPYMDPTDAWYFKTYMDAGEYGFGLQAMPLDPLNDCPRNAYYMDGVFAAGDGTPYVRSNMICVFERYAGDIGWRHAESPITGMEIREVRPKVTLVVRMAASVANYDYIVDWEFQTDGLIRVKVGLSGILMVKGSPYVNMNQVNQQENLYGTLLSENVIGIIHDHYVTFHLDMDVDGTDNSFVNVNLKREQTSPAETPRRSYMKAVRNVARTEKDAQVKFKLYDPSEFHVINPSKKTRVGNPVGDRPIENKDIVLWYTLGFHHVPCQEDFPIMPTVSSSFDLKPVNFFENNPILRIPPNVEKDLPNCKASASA

CsCuAO3 = target: T2, CsCuAO3 (Camellia sinensis, UniProt A0A4S4DQ49); assay: as above; conditions: 0.1 M potassium phosphate pH 6.5; O2 co-substrate; unit "Mm" [sic] (substrate range 0.1-100 mM)
T2 construct: gene TEA_013658; recombinant GST fusion, pGEX-4T-1, purified; peroxisomal; copper/TPQ enzyme, CuAOs stated as homodimer in general; gene from Tea Plant Information Archive, locus id not given
T2 sequence (A0A4S4DQ49 1-679): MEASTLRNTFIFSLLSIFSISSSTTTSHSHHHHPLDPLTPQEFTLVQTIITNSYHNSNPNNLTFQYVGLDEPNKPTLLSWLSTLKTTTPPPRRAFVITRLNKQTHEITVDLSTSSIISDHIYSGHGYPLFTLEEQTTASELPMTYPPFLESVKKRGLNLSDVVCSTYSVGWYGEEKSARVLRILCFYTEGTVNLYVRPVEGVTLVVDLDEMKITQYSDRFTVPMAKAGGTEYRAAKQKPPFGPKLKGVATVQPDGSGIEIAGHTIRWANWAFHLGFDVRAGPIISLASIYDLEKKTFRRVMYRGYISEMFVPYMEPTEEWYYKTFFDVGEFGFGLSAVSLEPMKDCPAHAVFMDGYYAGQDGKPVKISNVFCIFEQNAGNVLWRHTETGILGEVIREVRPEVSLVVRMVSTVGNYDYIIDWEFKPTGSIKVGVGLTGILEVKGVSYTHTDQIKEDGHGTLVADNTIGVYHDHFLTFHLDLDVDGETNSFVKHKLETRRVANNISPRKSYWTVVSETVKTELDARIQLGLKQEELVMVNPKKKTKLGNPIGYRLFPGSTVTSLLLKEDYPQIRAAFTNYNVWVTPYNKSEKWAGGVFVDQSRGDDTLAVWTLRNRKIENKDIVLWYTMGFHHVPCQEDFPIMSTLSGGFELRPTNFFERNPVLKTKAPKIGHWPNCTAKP

CsAMADH1 = target: T3, CsAMADH1 (Camellia sinensis, UniProt I7F760); assay: NADH formation at […] nm; Lineweaver-Burk; conditions: 0.1 M potassium phosphate pH 8.0; 0.001 M NAD+ as co-substrate; unit "Mm" [sic] (substrate range 0.1-100 mM)
T3 construct: recombinant GST fusion, pGEX-4T-1, purified; plastid-localized; gene from Tea Plant Information Archive, locus id not given
T3 sequence (I7F760 1-505): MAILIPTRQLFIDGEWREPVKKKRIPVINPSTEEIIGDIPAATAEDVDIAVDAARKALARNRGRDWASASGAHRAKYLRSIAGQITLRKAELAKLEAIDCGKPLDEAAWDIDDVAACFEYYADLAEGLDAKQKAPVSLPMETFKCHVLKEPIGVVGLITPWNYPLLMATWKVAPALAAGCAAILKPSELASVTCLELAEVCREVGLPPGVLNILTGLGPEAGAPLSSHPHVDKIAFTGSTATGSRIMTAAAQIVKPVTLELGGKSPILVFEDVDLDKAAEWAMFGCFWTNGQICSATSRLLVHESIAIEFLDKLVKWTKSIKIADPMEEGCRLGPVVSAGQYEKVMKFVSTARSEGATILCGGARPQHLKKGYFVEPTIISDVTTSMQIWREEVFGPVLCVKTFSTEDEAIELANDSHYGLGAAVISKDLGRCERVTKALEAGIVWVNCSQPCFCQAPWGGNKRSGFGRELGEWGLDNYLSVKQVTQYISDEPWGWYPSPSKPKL

Km (CsCuAO1)	Km (CsCuAO3)	Km (CsAMADH1)	SMILES
21.9 Mm	15.8 Mm		NCCCCN [putrescine]
		25.7 Mm	NCCCC=O [4-ABAL]
